# Experimental data: patent US20260355239A1, “COMBINATION OF A T CELL THERAPY AND CONTINUOUS OR INTERMITTENT DGK INHIBITOR DOSING” (Juno Therapeutics, Inc., priority 2022, published 2026)
# Where two headings read alike, the source gives them in different places.
# Key:
# [1] = system: Granta-519 cells; assay: Rescue treatment: cytolytic activity of chronically stimulated CAR-T cells, 2D, Granta-519; format: cell-based, human; conditions: higher concentrations, 2D co-culture
# [2] = system: CAR-expressing T cells; assay: Chronic stimulation assay, rescue treatment: tumor cell numbers, spheroid volume and cytokines during re-challenge of chronically stimulated CAR-expressing T cells (FIGS. 7A-8B); format: cell-based, human
# Text: FIGS. 7A-7B and 8A-8B show cytolytic activity and cytokine production during re-challenge in the presence of Compound 17 of chronically stimulated CAR-expressing T cells (rescue treatment).
# These observations were made using a chronic stimulation assay to render T cells (e.g. CAR T cells) hypofunctional (e.g. reduced cytolysis and IL-2 secretion). Using this model, engineered T cells (e.g. CAR T cells or eTCR T cells) were examined to assess impact of DGKi, such as Compound 17, on function of the engineered T cells when present during (concurrent) or following (rescue) exposure to conditions leading to a hypofunctional, exhaustive state.
# [3] = system: anti-CD19 CAR-T cells; assay: CAR-T cell viability; format: cell-based, human; conditions: acute stimulation assays
# Text: (§1) T cell compositions containing T cells expressing an exemplary anti-CD19 CAR were generated from leukapheresis samples from two healthy human adult donors by a process that included immunoaffinity-based selection of T cells by separately selecting CD4+ and CD8+ cells from the samples, resulting in two compositions enriched for CD4+ and CD8+ cells, respectively, per donor. Cells of the enriched CD4+ and CD8+ compositions were separately activated with anti-CD3/anti-CD28 beads and subjected to lentiviral transduction with a vector encoding an anti-CD19 CAR. […]
# (§2) Prior to use, the cryopreserved CD4+ and CD8+ CAR-engineered cell compositions were thawed and combined at approximately a 1:1 CD4:CD8 ratio for each donor to prepare a combined CD4+ CAR+ and CD8+ CAR+ T cell composition. The effects of treatment with Compound 17 at various concentrations (0.1 nM, 1 nM, 10 nM, 100 nM, or 1000 nM) added at day 0 during stimulation of the combined CAR-T cell composition with a plate-bound CAR-specific anti-idiotypic antibody (see, e.g., WO2018/023100) or during co-culture with CD19-expressing cells was then assessed.
# [4] = system: Raji-rFluc cells; assay: In vivo anti-tumor effect with lower CAR T cell dose, Raji-rFluc NSG mice (Example 7)
# Protocol: The in vivo anti-tumor effects of a continuous Compound 17 dosing regimen in combination with a lower dose of CD19-directed CAR T cells were assessed.
# These doses of CAR-expressing T cells were not expected to achieve complete tumor rejection.
# [5] = system: eTCR T cells; assay: Rescue treatment: proliferation of chronically stimulated eTCR T cells on re-stimulation; format: cell-based, human; conditions: 100 nM, 7 day re-stimulation with 20 μg/mL anti-Vbeta
# Text: Primary human CD4+ and CD8+ T cells were isolated from healthy donors by immunoaffinity-based methods. The isolated CD4+ and CD8+ T cells were combined and stimulated with an anti-CD3/anti-CD28 reagent, and then were transduced with a lentiviral vector encoding an anti-human papillomavirus 16 (anti-HPV16) eTCR. The nucleotide sequences encoding the beta chain and the alpha chain of the eTCR were separated by a sequence encoding a 2A ribosome skip element. Following transduction, the cells were cultured in media containing human serum and cytokines for 9-10 days prior to further assessment.
# In another experiment to assess activity of the DGKi to rescue or reverse exhaustion, eTCR T cells were chronically stimulated for 6 days as described above in the absence of Compound 17. Then, chronically stimulated eTCR T cells or freshly thawed eTCR T cells that had not been chronically stimulated were re-stimulated with 20 μg/mL plate-bound antibody against the Vbeta chain of the eTCR in the presence of 100 nM Compound 17 for 7 days. As a control, chronically stimulated eTCR T cells were re-stimulated in the absence of Compound 17 for 7 days. At the end of the 7 day re-stimulation, cell counts were determined.
# [6] = system: anti-CD19 CAR-T cells; assay: CAR-T cell phenotype after acute stimulation (flow cytometry); format: cell-based, human
# Text: as §1, with “CAR. The anti-CD19 CAR contained an anti-CD19 single-chain variable fragment (scFv) derived from a murine antibody (variable region derived from FMC63), an immunoglobulin-derived spacer, a transmembrane domain derived from CD28, a costimulatory region derived from 4-1BB, and a CD3-zeta intracellular signaling domain.” for “CAR.”
# as §2
# Approximately 20,000 cells of the combined CAR-T cell composition were stimulated with 3 μg/ml or 30 μg/ml plate-bound CAR-specific anti-idiotypic antibody in the presence of Compound 17. After a 48-hour stimulation, T cells were surface stained with antibodies for various activation and differentiation markers and analyzed by flow cytometry for the percent of cells positive for the assessed markers (% positive) and for mean fluorescence intensity (MFI) of expression for the assessed markers. […]
# [7] = system: Raji-rFluc cells
# Protocol: For assessing in vivo anti-tumor effects, immunodeficient NSG mice were injected intravenously with 0.5×10^6 Raji-rFluc cells. […] This dose of CAR-expressing T cells was not expected to achieve complete tumor rejection.
# For assessing tumor burden by bioluminescence imaging, mice received intraperitoneal injections of luciferin substrate resuspended in phosphate-buffered saline. Tumor burden and survival of treated mice were assessed until Day 50. In addition, flow cytometry for assessing circulating CAR T cell number and CD4 and CD8 expression was performed on Days 5, 12, 19, and 26. CAR expression was assessed using an anti-idiotypic (anti-ID) antibody specific for the CAR.
# [8] = 0.3 or 0.6 mg/kg oral once daily Days 1-30 with 0.5×10^6 or 1×10^6 CAR T cells, vs CAR T cells alone
# [9] = 48-hour stimulation, 3 or 30 μg/mL CAR-specific anti-idiotypic antibody
# [10] = Compound 17: 0.3 mg/kg oral once daily Days 1-30 with CAR T cells, or KO CAR T cells
# [11] = Compound 17: 0.3 mg/kg oral once daily Days 1-30 with CAR T cells, or KO CAR T cells, vs CAR T cells without DGK KO alone
smiles,measurement,setting,value
"CC[C@H]1CN([C@@H](CC)c2ccc(C(F)(F)F)cc2)[C@H](CC)CN1c1nc(=O)n(C)c2ccc(C#N)nc12 [Compound 17, 4-((2S,5R)-2,5-diethyl-4-((S)-1-(4-(trifluoromethyl)phenyl)propyl)piperazin-1-yl)-1-methyl-2-oxo-1,2-dihydropyrido[3,2-d]pyrimidine-6-carbonitrile]",cytolytic activity of CAR T cells against Granta-519 cells,[1],improved the cytolytic activity of CAR T cells against K562.CD19 and Granta-519 cells
same,recovery of activity of exhausted T cells,[2]; chronically stimulated T cells exhibiting features of exhaustion,able to recover activity or have their activity restored or partially restored
same,rescue of T cell function of exhausted T cells,"[2]; rescue treatment, later exposure","could rescue or restore T cell function, including cytokine production and cytolytic activity, of exhausted T cells"
same,T cell viability,[3],no impact of Compound 17 on T cell viability was observed
same,CAR T cell expansion and/or persistence,"[4]; 0.3 or 0.6 mg/kg oral once daily Days 1-30, all groups",increased CAR T cell expansion and/or persistence in all groups
same,survival,[4]; [8],improved survival in all groups
same,tumor burden,[4]; [8],lowered tumor burden
same,tumor suppression (tumor control index),[4]; [8],enhanced tumor suppression in all groups
same,"CAR T cell expansion, lower CAR T cell dose","[4]; 0.5×10^6 CAR T cells + 0.3 mg/kg, relative to higher CAR T cell dose in combination with Compound 17",CAR T cell expansion was delayed
same,"circulating CAR T cell counts, lower CAR T cell dose","[4]; 0.5×10^6 CAR T cells + 0.3 mg/kg, vs higher CAR T cell dose alone",later exceeded circulating CAR T cell counts for the group that received the higher CAR T cell dose alone
same,proliferation of chronically stimulated eTCR T cells (cell counts),[5],increased proliferation of the eTCR T cells
same,expression of CD27 and CD62L,[6]; [9],decreased expression of CD27 and CD62L
same,expression of CD69 and PD-1,[6]; [9],increased expression of CD69 and PD-1
same,"effect on cell phenotype, dose dependence",[6]; in particular 30 μg/mL CAR-specific anti-idiotypic antibody,dose-dependent
same,CAR T cell expansion and/or persistence,[7]; [10],improved CAR T cell expansion and/or persistence
same,tumor burden,[7]; [10],tumor burden was reduced
same,anti-tumor efficacy (tumor control index),[7]; [11],improved anti-tumor efficacy
same,survival,[7]; [11],improved survival
same,"tumor burden, survival, and CAR T cell expansion and/or persistence vs DGKα/ζ dual KO CAR T cells",[7]; continuous DGKi administration with CAR T cells,comparable to those achieved with administration of DGKα/ζ dual KO CAR T cells
